The target in series [1] is T1, recombinant HIV reverse transcriptase (HIV RTR) (Human immunodeficiency virus type 1 group M subtype B, UniProt P04585).
T1 construct: recombinant HIV reverse transcriptase (HIV RTR)
The series can be described thus: Reverse transcriptase assay: incorporation of tritiated deoxyguanosine monophosphate into acid-precipitable cDNA by recombinant HIV reverse transcriptase. The format is biochemical. Conditions: poly r(C).oligo d(G)12-18 template, [3H]dGTP, pH 8.2 buffer, 37° C., 45 minutes. As for the experimental part: The assay measures the incorporation of tritiated deoxyguanosine monophosphate by recombinant HIV reverse transcriptase (HIV RTR) (or other RT) into acid-precipitable cDNA at the Km values of dGTP and poly r(C).cndot.oligo d(G)12-18.
Thirty uL of a reaction mixture containing equal volumes of: 500 mM Tris.cndot.HCl (pH 8.2), 300 mM MgCl2, 1200 mM KCl, 10 mM DTT, 400 μg/mL poly r(c).cndot.oligo d(G) [prepared by dissolving 1.5 mg (25 U) poly r(C).cndot.oligo d(G) in 1.5 ml sterile distilled H2 O and diluting to 400 μg/ml], 0.1 μCi/μl [^3 H]dGTP, 160 μM dGTP, was added to 10 μl sterile distilled H2 O, and 2.5 μl of potential inhibitor. An aliquot of 10 μL of 5 nM purified HIV RTR was added to initiate the reaction. The mixture was incubated at 37° C. for 45 minutes.
After incubation is complete, the tubes were cooled in ice for 5 minutes. Ice-cold 13% TCA containing 10 mM NaPPi (200 μl) are added and the mixture incubated on ice for 30 minutes. The precipitated cDNA is removed by filtration using presoaked glass filters [TCA, NaPPi ]. The precipitate is then washed with 1N HCl, 10 mM NaPPi.
The filter discs are then counted in a scintillation counter.
Under these conditions [dGTP] and poly r(C).cndot.oligo d(G)12-18 each are approximately equal to the appropriate Km value. Approximately 5-6,000 cpm of [^3 H] GMP are incorporated into acid-precipitable material. The RT reaction is concentration- and time-dependent. […] The calculated IC50 values for the compounds of this invention are as follows: […]

Series [2] is described as follows: In vitro metabolism of compound II with rat liver slices. The format is in vitro ADME. The note with it: 157.7 μM, four hours, 37° C., pH 7.4, HPLC photodiode array-UV. As for the experimental part:
Compound II (157.7 μM) was incubated with rat liver slices (10.17 g wet weight, 250-400 μ thick, ~1.2 cm wide) in 100 ml of Williams' Medium E at pH 7.4 and at 37° C. under an atmosphere of 95% oxygen and 5% carbon dioxide. After four hours the incubation mixture was extracted with ethyl acetate. The extract was evaporated to dryness and the residue reconstituted in methanol. The reconstitute was subjected to preparative HPLC on a reverse-phase column with an on-line UV-diode array detector. Three major metabolites--Ia, Ib and Ic--were isolated for characterization by NMR spectroscopy and mass spectrometry.
The three major products were identified by proton NMR (500 MHz; see Table below) and mass spectrometry as resulting from α-hydroxylation of the ethyl group on the pyridinone (HPLC Peak designating compound Ia), and β- and α-hydroxylation of the ethyl group on the pyridine (designated compounds Ic and Ib, respectively). [drawing 14]

A word on the IC50: it is the concentration that inhibits the measured activity by half.

With `CCc1cc(NCc2cc(CC)c(C)nc2OC)c(O)nc1C` [Compound II, 3-[3-(5-ethyl-2-methoxy-6-methylpyridyl)methyl]amino-5-ethyl-6-methyl-2(1H)-pyridinone], the IC50 in series [1] was found to be 29 nM. In series [2], the “number of major products (metabolites) formed” value is listed as “three” and the “number of minor products formed” value is reported as “at least 5”.

`CCc1cc(CNc2cc(C(C)O)c(C)[nH]c2=O)c(OC)nc1C` (stereo not drawn) [Ia, 3-[3-(5-ethyl-2-methoxy-6-methylpyridyl)methyl]amino-5-(1-hydroxy)ethyl-6-m ethyl-2(1H )-pyridinone]: in series [1], the half-maximal inhibitory concentration (IC50) amounted to 195 nM.

On to `CCc1cc(NCc2cc(C(C)O)c(C)nc2OC)c(=O)[nH]c1C` (stereo not drawn) [Ib, 3-[3-(5-(1-hydroxy)ethyl-2-methoxy-6-methylpyridyl)methyl]amino-5-ethyl-6-m ethyl-2(1H)-pyridinone], for which the IC50 in series [1] amounted to 390 nM.

As to `CCc1cc(NCc2cc(CCO)c(C)nc2OC)c(=O)[nH]c1C` [Ic, 3-[3-(5-(2-hydroxy)ethyl-2-methoxy-6-methylpyridyl)-methyl]amino-5-ethyl-6-methyl-2(1H)-pyridinone], in series [1], the concentration for half-maximal inhibition (IC50) amounted to 250 nM.

Source of the values: patent US5364776A, “Method of hydroxylating 3-[3-(5-ethyl-2-methoxy-6-methylpyridyl)methyl]amino-5-ethyl-6-methyl-2( 1H)-pyridinone with liver slices” (Merck & Co., Inc., priority 1992, dated 1994).
